Patent US10385103B2, “Cell-permeable (ICP)-SOCS3 recombinant protein and uses thereof” (CELLIVERY THERAPEUTICS, INC., priority 2014, dated 2019)

Test system: RAW 264.7 cells
Assay: Quantitative cell-permeability of FITC-labeled aMTD- or rPeptide-fused CRA recombinant proteins (flow cytometry)
Assay type: cell-based
Conditions: for Relative Ratio to aMTD AVE: cell-permeability of rPeptide-fused CRA recombinant protein relative to average of 240 aMTDs
Procedure, shortened: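 Uptake of fluorescently labeled, peptide-fused cargo proteins was quantified by flow cytometry (Guava, Millipore) and analyzed in FlowJo software. RAW 264.7 cells received 10 μM FITC-labeled protein for 1 hour at 37° C., were rinsed three times with cold PBS, and were trypsinized with 0.25% tripsin/EDTA for 20 minutes at 37° C. to remove bound protein before measurement. Permeability was expressed relative to reference proteins.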

[1] = cell-permeability of aMTD-fused CRA recombinant protein relative to negative control (A: rP38)
[2] = cell-permeability of aMTD-fused CRA recombinant protein relative to reference CPP (B: MTM12)
[3] = cell-permeability of aMTD-fused CRA recombinant protein relative to reference CPP (C: MTD85)
[4] = 10 μM FITC-labeled, 1 hour, 37° C., RAW 264.7 cells
[5] = cell-permeability relative to negative control rP38 (A type), aMTD-fused CRA recombinant protein, 10 μM FITC-labeled, 1 hour, 37° C., RAW 264.7 cells
[6] = cell-permeability relative to reference CPP MTD85 (C type), aMTD-fused CRA recombinant protein, 10 μM FITC-labeled, 1 hour, 37° C., RAW 264.7 cells
[7] = cell-permeability relative to reference CPP MTM12 (B type), aMTD-fused CRA recombinant protein, 10 μM FITC-labeled, 1 hour, 37° C., RAW 264.7 cells

| Substance | Relative Ratio (Fold) A [1] | Relative Ratio (Fold) B [2] | Relative Ratio (Fold) C [3] | Relative Ratio to aMTD AVE [4] | Relative Ratio (Fold) A [5] | Relative Ratio (Fold) C [6] | Relative Ratio (Fold) B [7] |
| --- | --- | --- | --- | --- | --- | --- | --- |
| 425 (AVVAIAPVLALP; Amino acid Sequence of aMTD425) [compound 425] | 9.4 Fold | 6.3 Fold | 3.2 Fold | – | – | – | – |
| 426 (AAALAIPLAIIP; Amino acid Sequence of rPeptide ID 426) [compound 426] | – | – | – | 0.40 | – | – | – |
| 442 (ALAALVPAVLVP; Amino acid Sequence of aMTD442) [compound 442] | 20.4 Fold | 12.6 Fold | 6.9 Fold | – | – | – | – |
| 443 (ALAALVPVALVP; Amino acid Sequence of aMTD443) [compound 443] | 8.0 Fold | 5.3 Fold | 2.7 Fold | – | – | – | – |
| 444 (LAAALVPVALVP; Amino acid Sequence of aMTD444) [compound 444] | 8.1 Fold | 5.4 Fold | 2.7 Fold | – | – | – | – |
| 445 (ALAALVPALVVP; Amino acid Sequence of aMTD445) [compound 445] | – | – | – | – | 6.9 Fold | 2.3 Fold | 4.6 Fold |
| 461 (IAAVIVPAVALP; Amino acid Sequence of aMTD461) [compound 461] | 19.0 Fold | 12.7 Fold | 6.4 Fold | – | – | – | – |
| 462 (IAAVLVPAVALP; Amino acid Sequence of aMTD462) [compound 462] | – | – | – | – | 6.3 Fold | 2.1 Fold | 4.2 Fold |
| 463 (AVAILVPLLAAP; Amino acid Sequence of aMTD463) [compound 463] | 17.6 Fold | 11.7 Fold | 5.9 Fold | – | – | – | – |
| 464 (AVVILVPLAAAP; Amino acid Sequence of aMTD464) [compound 464] | 22.3 Fold | 14.9 Fold | 7.5 Fold | – | – | – | – |
| 465 (IAAVIVPVAALP; Amino acid Sequence of aMTD465) [compound 465] | 7.4 Fold | 4.9 Fold | 2.5 Fold | – | – | – | – |
| 466 (IIAAAAPLAIIP; Amino acid Sequence of rPeptide ID 466) [compound 466] | – | – | – | 0.52 | – | – | – |
| 482 (ILAVAAIPVAVP; Amino acid Sequence of aMTD482) [compound 482] | 15.8 Fold | 10.6 Fold | 5.3 Fold | – | – | – | – |
| 483 (ILAAAIIPAALP; Amino acid Sequence of aMTD483) [compound 483] | – | – | – | – | 6.8 Fold | 2.3 Fold | 4.5 Fold |
| 484 (LAVVLAAPAIVP; Amino acid Sequence of aMTD484) [compound 484] | 15.8 Fold | 10.4 Fold | 5.3 Fold | – | – | – | – |
| 485 (AILAAIVPLAVP; Amino acid Sequence of aMTD485) [compound 485] | – | – | – | – | 6.8 Fold | 2.3 Fold | 4.5 Fold |
| 501 (VIVALAVPALAP; Amino acid Sequence of aMTD501) [compound 501] | 21.5 Fold | 14.4 Fold | 7.2 Fold | – | – | – | – |
| 502 (AIVALAVPVLAP; Amino acid Sequence of aMTD502) [compound 502] | – | – | – | – | 5.6 Fold | 1.9 Fold | 3.7 Fold |
| 504 (LIVALAVPALAP; Amino acid Sequence of aMTD504) [compound 504] | – | – | – | – | 3.3 Fold | 1.1 Fold | 2.2 Fold |

| Substance | Relative Ratio (Fold) A [1] | Relative Ratio (Fold) B [2] | Relative Ratio (Fold) C [3] | Relative Ratio to aMTD AVE [4] | Relative Ratio (Fold) A [5] | Relative Ratio (Fold) C [6] | Relative Ratio (Fold) B [7] |
| --- | --- | --- | --- | --- | --- | --- | --- |
| 505 (AIIIVIAPAAAP; Amino acid Sequence of aMTD505) [compound 505] | 12.4 Fold | 8.3 Fold | 4.2 Fold | – | – | – | – |
| 507 (VAIALAPVVVAP; Amino acid Sequence of aMTD907) [compound 507] | 8.1 Fold | 5.4 Fold | 2.8 Fold | – | – | – | – |
| 521 (LAALIVVPAVAP; Amino acid Sequence of aMTD521) [compound 521] | 9.4 Fold | 6.3 Fold | 3.2 Fold | – | – | – | – |
| 522 (ALLVIAVPAVAP; Amino acid Sequence of aMTD522) [compound 522] | 22.7 Fold | 15.2 Fold | 7.7 Fold | – | – | – | – |
| 524 (AVALIVVPALAP; Amino acid Sequence of aMTD524) [compound 524] | 18.3 Fold | 12.2 Fold | 6.2 Fold | – | – | – | – |
| 525 (ALAIVVAPVAVP; Amino acid Sequence of aMTD525) [compound 525] | 13.8 Fold | 9.2 Fold | 4.7 Fold | – | – | – | – |
| 541 (LLALIIAPAAAP; Amino acid Sequence of aMTD541) [compound 541] | 14.8 Fold | 9.9 Fold | 5.0 Fold | – | – | – | – |
| 542 (ALALIIVPAVAP; Amino acid Sequence of aMTD542) [compound 542] | 16.2 Fold | 10.8 Fold | 5.5 Fold | – | – | – | – |
| 543 (LLAALIAPAALP; Amino acid Sequence of aMTD543) [compound 543] | 11.7 Fold | 7.9 Fold | 4.0 Fold | – | – | – | – |
| 544 (IVALIVAPAAVP; Amino acid Sequence of aMTD544) [compound 544] | 23.4 Fold | 15.6 Fold | 7.9 Fold | – | – | – | – |
| 545 (VVLVLAAPAAVP; Amino acid Sequence of aMTD545) [compound 545] | 34.6 Fold | 23.1 Fold | 11.7 Fold | – | – | – | – |
| 561 (AAVAIVLPAVVP; Amino acid Sequence of aMTD561) [compound 561] | – | – | – | – | 3.9 Fold | 1.3 Fold | 2.6 Fold |
| 562 (ALIAAIVPALVP; Amino acid Sequence of aMTD562) [compound 562] | 32.7 Fold | 21.8 Fold | 11.0 Fold | – | – | – | – |
| 564 (VAIALIVPALAP; Amino acid Sequence of aMTD564) [compound 564] | 43.6 Fold | 29.1 Fold | 14.7 Fold | – | – | – | – |
| 565 (VAIVLVAPAVAP; Amino acid Sequence of aMTD565) [compound 565] | 7.5 Fold | 5.0 Fold | 2.5 Fold | – | – | – | – |
| 582 (VAVALIVPALAP; Amino acid Sequence of aMTD582) [compound 582] | 30.6 Fold | 20.4 Fold | 10.3 Fold | – | – | – | – |
| 583 (AVILALAPIVAP; Amino acid Sequence of aMTD583) [compound 583] | – | – | – | – | 7.3 Fold | 2.4 Fold | 4.8 Fold |
| 585 (ALIVAIAPALVP; Amino acid Sequence of aMTD585) [compound 585] | – | – | – | – | 6.6 Fold | 2.2 Fold | 4.4 Fold |
